# Reference: patent US8980796B2, “Crystal modification of Mesotrione” (Agan Chemical Manufacturers Ltd., priority 2009, dated 2015)
# “Also recorded” adds a separate entry of the source. Read-outs that look alike come from different tables or passages of the source.
# Columns and labels:
# [1] = per WO 2007/083242, WO 2006/021743, cited from earlier work
# corn varieties = experiment: Selectivity pot trials, overall phytotoxicity on crops; assay type: in vivo; conditions: corn varieties tested; 3500 ml/ha (equivalent to 350g a.i./ha)
# Protocol: The selectivity of two Mesotrione 100SC (containing 100 g/l mesotrione) formulations was compared for two crystal modifications (1 and 3).
# The test was performed on three corn varieties. The corn varieties were sown in plastic pots (400 cc) filled with heavy soil. Each treatment was sprayed in 5 replicates. The trial was performed in a glasshouse with controlled temperature (20-30°).
# Post emergence spraying was performed two weeks after sowing. The trials were sprayed with a mechanical sprayer, with a spray volume of 200 L/ha (equivalent to 3500 ml/ha mesotrione 100SC). The plants were irrigated 24 H (hours) after spraying. Selectivity evaluations were conducted during the trial according to the following scale: • 0=Crop completely dead (necrotic). • 100=Plants without any phytotoxic damage.
compound,measurement,setting,value
"CS(=O)(=O)c1ccc(C(=O)C2C(=O)CCCC2=O)c([N+](=O)[O-])c1 [Mesotrione form 1, 2-[4-(methylsulfonyl)-2-nitrobenzoyl]-1,3-cyclohexanedione]",thermodynamic stability of the polymorphic form,[1]; listed as Form 1,thermodynamically stable
"CS(=O)(=O)c1ccc(C(=O)C2C(=O)CCCC2=O)c([N+](=O)[O-])c1 [Mesotrione form 2, 2-[4-(methylsulfonyl)-2-nitrobenzoyl]-1,3-cyclohexanedione]",thermodynamic stability of the polymorphic form,[1]; listed as Form 2,thermodynamically unstable
"CS(=O)(=O)c1ccc(C(=O)C2C(=O)CCCC2=O)c([N+](=O)[O-])c1 [Mesotrione form 3, 2-[4-(methylsulfonyl)-2-nitrobenzoyl]-1,3-cyclohexanedione]",phytotoxicity on crops as compared to mesotrione form 1,corn varieties,decreased phytotoxicity; also recorded: low phytotoxicity
